Experimental findings from patent publication US20240376099A1, “COMPOUNDS AND COMPOSITIONS AS INHIBITORS OF ENDOSOMAL TOLL-LIKE RECEPTORS” (Novartis AG, priority 2016, published 2024) are described below.

The assay concerns the target T1, TLR8 (Homo sapiens, UniProt Q9NR97).
T1 sequence (Q9NR97 27-1041): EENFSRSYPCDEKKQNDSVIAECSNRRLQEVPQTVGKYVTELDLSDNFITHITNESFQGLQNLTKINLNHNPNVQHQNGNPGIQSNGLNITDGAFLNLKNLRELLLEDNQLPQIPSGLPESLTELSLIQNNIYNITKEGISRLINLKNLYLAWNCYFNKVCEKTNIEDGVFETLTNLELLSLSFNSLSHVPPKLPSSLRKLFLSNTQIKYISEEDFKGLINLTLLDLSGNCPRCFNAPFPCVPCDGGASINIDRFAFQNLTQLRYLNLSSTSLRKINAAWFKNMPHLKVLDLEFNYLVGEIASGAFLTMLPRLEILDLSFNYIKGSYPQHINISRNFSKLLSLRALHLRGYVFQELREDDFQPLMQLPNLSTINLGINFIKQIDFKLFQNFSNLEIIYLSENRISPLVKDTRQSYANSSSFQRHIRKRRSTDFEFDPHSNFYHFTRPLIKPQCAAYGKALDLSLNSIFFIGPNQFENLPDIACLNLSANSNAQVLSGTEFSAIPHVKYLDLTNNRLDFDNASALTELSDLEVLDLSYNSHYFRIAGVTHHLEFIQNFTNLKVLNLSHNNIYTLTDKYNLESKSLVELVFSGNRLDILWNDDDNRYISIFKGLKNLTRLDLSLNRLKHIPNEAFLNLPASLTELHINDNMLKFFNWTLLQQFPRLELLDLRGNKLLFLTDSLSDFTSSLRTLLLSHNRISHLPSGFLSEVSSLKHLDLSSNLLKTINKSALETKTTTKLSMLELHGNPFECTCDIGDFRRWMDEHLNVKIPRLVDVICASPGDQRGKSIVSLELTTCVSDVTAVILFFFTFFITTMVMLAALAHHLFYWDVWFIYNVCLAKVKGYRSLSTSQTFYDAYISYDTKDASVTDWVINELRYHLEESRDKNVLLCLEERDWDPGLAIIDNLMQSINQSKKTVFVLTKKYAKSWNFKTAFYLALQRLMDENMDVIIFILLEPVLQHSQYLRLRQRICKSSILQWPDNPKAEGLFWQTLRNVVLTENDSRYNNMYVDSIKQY
In words: huPBMC TLR8 Antagonist IL-6 TR-FRET Assay. The format is cell-based. Also on record: Fresh blood was collected from normal human donors; endogenous in cells; host or cells: human PBMCs from fresh donor blood. The conditions noted are these: human PBMCs stimulated with ssRNA40 1 μg/ml (DOTAP), 14-16 hrs; IL-6 TR-FRET read-out. The essentials:
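Human PBMCs from fresh donor blood (150,000 cells/well) stimulated 14–16 h at 37 °C with DOTAP-complexed ssRNA40 (final 1 μg/ml for TLR8, 10 μg/mL for TLR7) or ODN2216 (final 0.3 μM, TLR9), 0.25% DMSO, ten-point 1/3 compound dilutions. Supernatant IL-6 read by HTRF (TLR8); IFNα by IFNα2b AlphaLISA (TLR7/TLR9).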
For orientation: TR-FRET usually uses a lanthanide donor and a delayed reading to cut background.
`Cc1nc(N2CCc3c(c(C)nn3CC34CCC(N5CCCC5)(CC3)CC4)C2)c2c(n1)c(C)nn2C` [compound 17, 1,3,5-trimethyl-7-(3-methyl-1-((4-(pyrrolidin-1-yl)bicyclo[2.2.2]octan-1-yl)methyl)-6,7-dihydro-1H-pyrazolo[4,3-c]pyridin-5(4H)-yl)-1H-pyrazolo[4,3-d]pyrimidine]: the IC50 (usually the concentration at which inhibition is half-maximal) was determined as 199 nM.

`COCCNC12CCC(Cn3nc(C)c4c3CCN(c3nc(C)nc5c(C)nn(C)c35)C4)(CC1)CC2` [compound 18, N-(2-methoxyethyl)-4-((3-methyl-5-(1,3,5-trimethyl-1H-pyrazolo[4,3-d]pyrimidin-7-yl)-4,5,6,7-tetrahydro-1H-pyrazolo[4,3-c]pyridin-1-yl)methyl)bicyclo[2.2.2]octan-1-amine]: the IC50 is 77 nM.

As for `Cc1nc(N2CCc3c(c(C)nn3CC34CCC(N5CCOCC5)(CC3)CC4)C2)c2cnn(C)c2n1` [compound 19, 4-(4-((5-(1,6-dimethyl-1H-pyrazolo[3,4-d]pyrimidin-4-yl)-3-methyl-4,5,6,7-tetrahydro-1H-pyrazolo[4,3-c]pyridin-1-yl)methyl)bicyclo[2.2.2]octan-1-yl)morpholine], the 50% inhibitory concentration (IC50) was 186 nM.

Consider `CCNCC(=O)NC12CCC(Cn3nc(C)c4c3CCN(c3nc(C)nc5[nH]ncc35)C4)(CC1)CC2` [compound 20, 2-(ethylamino)-N-(4-((3-methyl-5-(6-methyl-1H-pyrazolo[3,4-d]pyrimidin-4-yl)-4,5,6,7-tetrahydro-1H-pyrazolo[4,3-c]pyridin-1-yl)methyl)bicyclo[2.2.2]octan-1-yl)acetamide], for which the IC50 was found to be 31 nM.

For `Cc1nc(N2CCc3c(c(C)nn3CC34CCC(N5CCOCC5)(CC3)CC4)C2)c2cn[nH]c2n1` [compound 21, 4-(4-((3-methyl-5-(6-methyl-1H-pyrazolo[3,4-d]pyrimidin-4-yl)-4,5,6,7-tetrahydro-1H-pyrazolo[4,3-c]pyridin-1-yl)methyl)bicyclo[2.2.2]octan-1-yl)morpholine], the IC50 is 36 nM.

Regarding `CCNCC(=O)NC12CCC(Cn3nc(C)c4c3CCN(c3nc(C)nc5c(C)nn(C)c35)C4)(CC1)CC2` [compound 22, 2-(ethylamino)-N-(4-((3-methyl-5-(1,3,5-trimethyl-1H-pyrazolo[4,3-c]pyrimidin-7-yl)-4,5,6,7-tetrahydro-1H-pyrazolo[4,3-c]pyridin-1-yl)methyl)bicyclo[2.2.2]octan-1-yl)acetamide], the IC50 came to 14 nM.

With `Cc1nc(N2CCc3c(c(C)nn3CC34CCC(NCC5COC5)(CC3)CC4)C2)c2c(n1)c(C)nn2C` [compound 23, 4-((3-methyl-5-(1,3,5-trimethyl-1H-pyrazolo[4,3-c]pyrimidin-7-yl)-4,5,6,7-tetrahydro-1H-pyrazolo[4,3-c]pyridin-1-yl)methyl)-N-(oxetan-3-ylmethyl)bicyclo[2.2.2]octan-1-amine], the IC50 stood at 373 nM.

On to `Cc1nc(N2CCc3c(c(C)nn3CC34CCC(NC(=O)CCN(C)C)(CC3)CC4)C2)c2c(n1)c(C)nn2C` [compound 24, 3-(dimethyalmino)-N-(4-((3-methyl-5-(1,3,5-trimethyl-1H-pyrazolo[4,3-d]pyrimidin-7-yl)-4,5,6,7-tetrahydro-1H-pyrazolo[4,3-c]pyridin-1-yl)methyl)bicyclo[2.2.2]octan-1-yl)propanamide], for which the IC50 came to 10 nM.

With `Cc1nc(N2CCc3c(c(C)nn3CC34CCC(N5CCOCC5)(CC3)CC4)C2)c2c(n1)c(C)nn2C` [compound 25, 4-(4-((3-methyl-5-(1,3,5-trimethyl-1H-pyrazolo[4,3-d]pyrimidin-7-yl)-4,5,6,7-tetrahydro-1H-pyrazolo[4,3-c]pyridin-1-yl)methyl)bicyclo[2.2.2]octan-1-yl)morpholine], the IC50 worked out at 17 nM.

For the compound `Cc1nc(N2CCc3c(c(C)nn3CC34CCC(NC5CCC5)(CC3)CC4)C2)c2c(n1)c(C)nn2C` [compound 27, N-cyclobutyl-4-((3-methyl-5-(1,3,5-trimethyl-1H-pyrazolo[4,3-d]pyrimidin-7-yl)-4,5,6,7-tetrahydro-1H-pyrazolo[4,3-c]pyridin-1-yl)methyl)bicyclo[2.2.2]octan-1-amine], the IC50 worked out at 14 nM.

As to `Cc1nc(N2CCc3c(c(C)nn3CC34CCC(N(C5CCC5)C5CCC5)(CC3)CC4)C2)c2c(n1)c(C)nn2C` [compound 28, N,N-dicyclobutyl-4-((3-methyl-5-(1,3,5-trimethyl-1H-pyrazolo[4,3-d]pyrimidin-7-yl)-4,5,6,7-tetrahydro-1H-pyrazolo[4,3-c]pyridin-1-yl)methyl)bicyclo[2.2.2]octan-1-amine], the IC50 came out at 641 nM.

As for `Cc1nc(N2CCc3c(c(C)nn3CC34CCC(N5CCCCC5)(CC3)CC4)C2)c2cn[nH]c2n1` [compound 29, 6-methyl-4-(3-methyl-1-((4-(piperidin-1-yl)bicyclo[2.2.2]octan-1-yl)methyl)-6,7-dihydro-1H-pyrazolo[4,3-c]pyridin-5(4H)-yl)-1H-pyrazolo[3,4-d]pyrimidine], the IC50 amounted to 16 nM.

Turning to `Cc1nc(N2CCc3c(c(C)nn3CC34CCC(N5CCCC5)(CC3)CC4)C2)c2cn[nH]c2n1` [compound 30, 6-methyl-4-(3-methyl-1-((4-(pyrrolidin-1-yl)bicyclo[2.2.2]octan-1-yl)methyl)-6,7-dihydro-1H-pyrazolo[4,3-c]pyridin-5(4H)-yl)-1H-pyrazolo[3,4-d]pyrimidine], the IC50 amounted to 324 nM.

As for `Cc1nc(N2CCc3c(c(C)nn3CC34CCC(NCC5(CO)COC5)(CC3)CC4)C2)c2c(n1)c(C)nn2C` [compound 31, (3-(((4-((3-methyl-5-(1,3,5-trimethyl-1H-pyrazolo[4,3-d]pyrimidin-7-yl)-4,5,6,7-tetrahydro-1H-pyrazolo[4,3-c]pyridin-1-yl)methyl)bicyclo[2.2.2]octan-1-yl)amino)methyl)oxetan-3-yl)methanol], the IC50 was found to be 27 nM.

With `Cc1nc(N2CCc3c(c(C)nn3CC34CCC(NC(=O)[C@@H]5COCCN5)(CC3)CC4)C2)c2c(n1)c(C)nn2C` [compound 33, (S)-N-(4-((3-methyl-5-(1,3,5-trimethyl-1H-pyrazolo[4,3-d]pyrimidin-7-yl)-4,5,6,7-tetrahydro-1H-pyrazolo[4,3-c]pyridin-1-yl)methyl)bicyclo[2.2.2]octan-1-yl)morpholine-3-carboxamide], the IC50 was 72 nM.

In the case of `Cc1nc(N2CCc3c(c(C)nn3CC34CCC(NC(=O)[C@@H]5CNCCO5)(CC3)CC4)C2)c2c(n1)c(C)nn2C` [compound 34, (S)-N-(4-((3-methyl-5-(1,3,5-trimethyl-1H-pyrazolo[4,3-d]pyrimidin-7-yl)-4,5,6,7-tetrahydro-1H-pyrazolo[4,3-c]pyridin-1-yl)methyl)bicyclo[2.2.2]octan-1-yl)morpholine-2-carboxamide], the IC50 worked out at 29 nM.

As to `Cc1nc(N2CCc3c(c(C)nn3CC34CCC(NC(=O)[C@H]5CNCCO5)(CC3)CC4)C2)c2c(n1)c(C)nn2C` [compound 36, (R)-N-(4-((3-methyl-5-(1,3,5-trimethyl-1H-pyrazolo[4,3-d]pyrimidin-7-yl)-4,5,6,7-tetrahydro-1H-pyrazolo[4,3-c]pyridin-1-yl)methyl)bicyclo[2.2.2]octan-1-yl)morpholine-2-carboxamide], the IC50 is 80 nM.

For the compound `Cc1nc(N2CCc3c(c(C)nn3CC34CCC(N5CCOCC5)(CC3)CC4)C2)c2c(C)noc2n1` [compound 37, 3,6-dimethyl-4-(3-methyl-1-((4-morpholinobicyclo[2.2.2]octan-1-yl)methyl)-6,7-dihydro-1H-pyrazolo[4,3-c]pyridin-5(4H)-yl)isoxazolo[5,4-d]pyrimidine], the IC50 amounted to 79 nM.

For the compound `Cc1nc(N2CCc3c(c(C)nn3CC34CCC(N5CCCCC5)(CC3)CC4)C2)c2c(n1)c(C)nn2C` [compound 38, 1,3,5-trimethyl-7-(3-methyl-1-((4-(piperidin-1-yl)bicyclo[2.2.2]octan-1-yl)methyl)-6,7-dihydro-1H-pyrazolo[4,3-c]pyridin-5(4H)-yl)-1H-pyrazolo[4,3-d]pyrimidine], the IC50 was found to be 31 nM.

As for `Cc1nc(N2CCc3c(c(C)nn3CC34CCC(N5CCCCC5)(CC3)CC4)C2)c2cnn(C)c2n1` [compound 39, 1,6-dimethyl-4-(3-methyl-1-((4-(piperidin-1-yl)bicyclo[2.2.2]octan-1-yl)methyl)-6,7-dihydro-1H-pyrazolo[4,3-c]pyridin-5(4H)-yl)-1H-pyrazolo[3,4-c]pyrimidine], the IC50 came out at 119 nM.
